Assay results from patent US7557123B2, “Heterocyclic compound and medicinal use thereof” (Kyoto Pharmaceutical Industries, Ltd., priority 2001, dated 2009).

Assays:
[1] = test system: male KK-A^y mice; assay: Hypoglycemic and hypolipidemic activity in spontaneously diabetic KK-Ay mice; assay type: in vivo; settings: 10 mg/kg/day orally for 4 consecutive days, plasma 24 hours after final administration, non-fasting, vs control group
Experimental: Blood was drawn under a non-fasting state from the tail vein of male KK-A^y mice, and the glucose and triglyceride levels of the plasma were measured using commercially available assay kits (glucose CII-test WAKO and triglyceride G-test WAKO, Wako Pure Chemical Industries, Ltd.). The mice were grouped (5 mice per group) into a control group and an administration group, such that the mean and standard deviation of the body weight and the plasma glucose and plasma triglyceride levels in each group were nearly the same. The test compounds (compounds of Examples 1, 2, 4, 8, 20, 22, 24, 27, 30, 33, 36, 37, 40, 45, 47, 52, 56, 58 and 64) were suspended in 5% gum arabic solution and administered (10 mg/kg/day) orally to the administration group for 4 consecutive days. The 5% gumarabic solution was orally administered to the control group. Blood was drawn under a non-fasting state from the tail vein 24 hours after the final administration and the glucose and triglyceride levels of the plasma were measured. The decrease in the plasma glucose and triglyceride levels was calculated from the following formula. Decrease (%)=[(mean of control group−mean of test compound administration group)/mean of control group]×100 Results

[2] = Solubility of the compound in water (buffer pH 7.0); assay type: physicochemical
Experimental: The pulverized test compound (compounds of Examples 2, 20, 22, 24, 27, 30, 40 or 65, 25 mg) was added to a buffer (1.0 ml, pH 7.0) and the mixture was shaken at 25° C. for 1 hr and passed through a membrane filter. The concentration of the test compound in the filtrate was measured by high performance liquid chromatography.

[3] = test system: male db/db mice; assay: Hypoglycemic and hypolipidemic activity in db/db mice; assay type: in vivo; settings: 3 mg/kg/day orally for 2 consecutive weeks, plasma 24 hours after final administration, non-fasting, vs control group
Experimental: Using db/db mice genetically showing high plasma glucose, hypertriglyceridemia, insulin resistance and obesity, the pharmacological activity of the test compounds of Examples 1, 2 and 20 was examined.
Blood was drawn under a non-fasting state from the tail vein of male db/db mice, the glucose level and triglyceride level of the plasma were measured using commercially available assay kits (glucose CII-test WAKO and triglyceride G-test WAKO, Wako Pure Chemical Industries, Ltd.). The mice were grouped (6 mice per group) into a control group and test compound (compounds of Examples 1, 2 and 20) administration group (3 mg/kg/day), such that the mean and standard deviation of the body weight and the plasma glucose and plasma triglyceride levels in each group were nearly the same. The test compound was suspended in 0.5% methylcellulose solution and administered orally for 2 consecutive weeks from the next day. The 0.5% methylcellulose solution was orally administered to the control group. Blood was drawn under a non-fasting state from the tail vein 24 hours after the final administration and the glucose and triglyceride levels of the plasma were measured. The decrease in the plasma glucose and triglyceride levels was calculated from the following formula. Decrease (%)=[(mean of control group−mean of test compound administration group)/mean of control group]×100 Results

[4] = 25 mg in 1.0 ml buffer pH 7.0, shaken at 25° C. for 1 hr, filtrate by HPLC

SMILES | Decrease (%) in glucose level [1] [%] | Decrease (%) in triglyceride level [1] [%] | further results
C=CCCCN1Cc2cc(OCCc3nc(/C=C/CC(C)C)oc3C)ccc2C[C@H]1C(=O)O (stereo in doubt) [Example 58, 7-{2-[5-methyl-2-(4-methyl-trans-1-penten-1-yl)oxazol-4-yl]ethoxy}-2-(4-pentenyl)-1,2,3,4-tetrahydroisoquinoline-(3S)-carboxylic acid] | 25.1 | 23.2 | 
CC(C)(C)N.CC=CC=CC(=O)N1Cc2cc(OCCc3nc(/C=C/C4(C)CCCCC4)oc3C)ccc2C[C@H]1C(=O)O (stereo in doubt) [Example 56] | 21.0 | 11.9 | 
CC(C)(C)N.CC=CC=CC(=O)N1Cc2cc(OCCc3nc(/C=C/CCCC)oc3C)ccc2C[C@H]1C(=O)O (stereo in doubt) [Example 27, tert-butylamine 2-(2,4-hexadienoyl)-7-{2-[2-(trans-1-hexen-1-yl)-5-methyloxazol-4-yl]ethoxy}-1,2,3,4-tetrahydroisoquinoline-(3S)-carboxylate] | 53.4 | 36.5 | Solubility (mg/ml) [2, 4]: 25 or above mg/ml
CC(C)(C)N.CC=CC=CC(=O)N1Cc2cc(OCCc3nc(/C=C/C4CCCC4)oc3C)ccc2C[C@H]1C(=O)O (stereo in doubt) [Example 22, tert-butylamine 7-{2-[2-(trans-2-cyclopentylvinyl)-5-methyloxazol-4-yl]ethoxy}-2-(2,4-hexadienoyl)-1,2,3,4-tetrahydroisoquinoline-(3S)-carboxylate] | 45.3 | 51.4 | Solubility (mg/ml) [2, 4]: 25 or above mg/ml
C=CCCN1Cc2cc(OCCc3nc(/C=C/CC(C)C)oc3C)ccc2C[C@H]1C(=O)O (stereo in doubt) [Example 64, 2-(3-butenyl)-7-{2-[5-methyl-2-(4-methyl-trans-1-penten-1-yl)oxazol-4-yl]ethoxy}-1,2,3,4-tetrahydroisoquinoline-(3S)-carboxylic acid] | 29.4 | 25.1 | 
CC(C)(C)N.CC=CC=CC(=O)N1Cc2cc(OCCc3nc(/C=C/C4CCCCC4)oc3C)ccc2C[C@H]1C(=O)O (stereo in doubt) [Example 40] | 54.3 | 37.0 | Solubility [2, 4]: 18.7 mg/mL
CCC/C=C/c1nc(CCOc2ccc3c(c2)CN(C(=O)C(F)(F)C(F)(F)F)[C@H](C(=O)O)C3)c(C)o1 (stereo in doubt) [Example 37] | 53.2 | 50.1 | 
CC(C)(C)N.CCCCC=CC(=O)N1Cc2cc(OCCc3nc(/C=C/CC(C)C)oc3C)ccc2C[C@H]1C(=O)O (stereo in doubt) [Example 24, tert-butylamine-2-(2-heptenoyl)-7-{2-[5-methyl-2-(4-methyl-trans-1-penten-1-yl)oxazol-4-yl]ethoxy}-1,2,3,4-tetrahydroisoquinoline-(3S)-carboxylate] | 52.8 | 50.7 | Solubility ([2]; pH 7): 18.7 mg/mL
CC(C)(C)N.CCC/C=C/c1nc(CCOc2ccc3c(c2)CN(C(=O)C=CCC(C)C)[C@H](C(=O)O)C3)c(C)o1 (stereo in doubt) [Example 47, tert-butylamine 2-(5-methyl-2-hexenoyl)-7-(2-[5-methyl-2-(trans-1-penten-1-yl)oxazol-4-yl]ethoxy}-1,2,3,4-tetrahydroisoquinoline-(3S)-carboxylate] | 29.9 | 10.9 | 
CC(C)(C)N.CC=CC=CC(=O)N1Cc2cc(OCCc3nc(/C=C/COC)oc3C)ccc2C[C@H]1C(=O)O (stereo in doubt) [Example 65] |  |  | Solubility [2, 4]: 20.5 mg/mL
CC(C)(C)N.CC=CC=CC(=O)N1Cc2cc(OCCc3nc(/C=C/CCC(C)C)oc3C)ccc2C[C@H]1C(=O)O (stereo in doubt) [Example 30, tert-butylamine 2-(2,4-hexadienoyl)-7-{2-[5-methyl-2-(5-methyl-trans-1-hexen-1-yl)oxazol-4-yl]ethoxy}-1,2,3,4-tetrahydroisoquinoline-(3S)-carboxylate] | 55.4 | 57.0 | Solubility [2, 4]: 17.3 mg/mL
CC(C)(C)N.CC=CC=CC(=O)N1Cc2cc(OCCc3nc(/C=C/CC(C)(C)C)oc3C)ccc2C[C@H]1C(=O)O (stereo in doubt) [Example 45, tert-butylamine 7-{2-[2-(4,4-dimethyl-trans-1-penten-1-yl)-5-methyloxazol-4-yl]ethoxy)-2-(2,4-hexadienoyl)-1,2,3,4-tetrahydroisoquinoline-(3S)-carboxylate] | 38.7 | 32.6 | 
CC(C)(C)N.CCC/C=C/c1nc(CCOc2ccc3c(c2)CN(C(=O)C(F)(F)CC)[C@H](C(=O)O)C3)c(C)o1 (stereo in doubt) [Example 52, tert-butylamine 2-(2,2-difluorobutyryl)-7-{2-[5-methyl-2-(trans-1-penten-1-yl)oxazol-4-yl]ethoxy}-1,2,3,4-tetrahydroisoquinoline-(3S)-carboxylate] | 26.6 | 19.1 | 
CCC/C=C/c1nc(CCOc2ccc3c(c2)CN(C(=O)C=CCCCC)[C@H](C(=O)[O-])C3)c(C)o1.[Na+] (stereo in doubt) [Example 1, sodium 2-(2-heptenoyl)-7-[2-(5-methyl-2-(trans-1-penten-1-yl)oxazol-4-yl)ethoxy]-1,2,3,4-tetrahydroisoquinoline-(3S)-carboxylate] | 46.1 | 45.3 | Decrease (%) in glucose level [3]: 21.3%; Decrease (%) in triglyceride level [3]: 62.7%
CC(C)(C)N.CC=CC=CC(=O)N1Cc2cc(OCCc3nc(/C(C)=C/CC)oc3C)ccc2C[C@H]1C(=O)O (stereo in doubt) [Example 36, tert-butylamine 2-(2,4-hexadienoyl)-7-{2-[5-methyl-2-(1-methyl-trans-1-buten-1-yl)oxazol-4-yl]ethoxy}-1,2,3,4-tetrahydroisoquinoline-(3S)-carboxylate] | 39.8 | 27.5 | 
CC(C)(C)N.CC=CC=CC(=O)N1Cc2cc(OCCc3nc(/C(C)=C/CCC)oc3C)ccc2C[C@H]1C(=O)O (stereo in doubt) [Example 33, tert-butylamine 2-(2,4-hexadienoyl)-7-(2-[5-methyl-2-(1-methyl-trans-1-penten-1-yl)oxazol-4-yl]ethoxy}-1,2,3,4-tetrahydroisoquinoline-(3S)-carboxylate] | 58.2 | 68.3 | 
CCCC#CC(=O)N1Cc2cc(OCCc3nc(/C=C/CCC)oc3C)ccc2C[C@H]1C(=O)O (stereo in doubt) [Example 4, 2-(2-hexynoyl)-7-[2-(5-methyl-2-(trans-1-penten-1-yl)oxazol-4-yl)ethoxy]-1,2,3,4-tetrahydroisoquinoline-(3S)-carboxylic acid] | 40.3 | 40.5 | 
Cc1oc(C=Cc2ccccc2)nc1CCOc1ccc2c(c1)CN(C(=O)C(F)(F)C(F)(F)F)[C@H](C(=O)O)C2 [Example 8, 7-[2-(5-methyl-2-styryloxazol-4-yl)ethoxy]-2-pentafluoropropionyl-1,2,3,4-tetrahydroisoquinoline-(3S)-carboxylic acid] | 57.2 | 71.1 | 
